Measurements: paper PMC9605497, “Potential of Epidermal Growth Factor-like Peptide from the Sea Cucumber Stichopus horrens to Increase the Growth of Human Cells: In Silico Molecular Docking Approach” (Marine Drugs, 2022)
“Also recorded” adds a separate entry of the source.

System: EGF/PDGF pathway genes
Assay: qPCR array of EGF/PDGF pathway genes
Type: cell-based, human
Parameters: key to expression class: +: Maximum expression; −: Minimum expression; unc.: Unchanged
Settings: 10 nM, 4 h; for fold change: vs serum-free medium
Method: Cells were seeded at 80,000 cells per well of 24-well plates in 400 µL of complete growth medium. Cells were grown in MEM basal medium supplemented with 10% FBS and 1% antibiotic–antimycotic in a humidified incubator at 37 °C, equilibrated with 5% CO2. After 24 h of culture, the medium was removed, washed once with PBS, replaced with serum-free medium and left to culture for another 16 h. Medium was removed and replaced with corresponding treatment medium each in triplicates; 10 nM and 50 nM of Sh-EGFl-1, 10 nM and 50 nM of rhEGF were used as a positive control and serum-free medium was used as a negative control. Cells were harvested after 4 h. Medium was removed and 200 μL of Trizol reagent (Thermo Scientific, Waltham, MA, USA) was immediately added.
RNA extraction was performed according to Trizol reagent manufacturer’s protocol. An elution volume of 15 μL RNase-free water was added before the concentration and purity were determined using NanoDrop.
A total of 100 ng RNA was used initially for the cDNA synthesis reaction. The reaction was carried out according to RT^2 First Strand Kit’s protocol (Qiagen, Venlo, Netherlands). Genomic DNA was removed according to the manufacturer’s protocol prior to cDNA strand generation.
The 10 μL cDNA of human skin cells was diluted with 91 μL prior to qPCR reaction. Primer pairs of 84 genes involved in the EGF pathway, five housekeeping genes such as ribosomal protein large, P0 (RPL0), glyceraldehyde-3-phosphate-dehydrogenase (GAPDH), beta-actin (ACTB), beta-2-microglobulin (B2M) and hypoxanthine phosphoribosyltransferase 1 (HPRT1), one positive control gene for genomic DNA contamination, three reverse transcription control genes and three PCR-positive controls were included in the Qiagen PAHS-040ZA qPCR array plate (Qiagen, Venlo, Netherlands). A list of all genes analyzed in this study is available in Supplementary Materials Table S7. The mixture reaction was prepared according to the protocol and run using BioRad CFX96TM. Samples of 10 nM rhEGF and 10 nM Sh-EGFl-1 were prepared in duplicates. The following thermal profile was applied: 1 cycle at 95 °C for 10 min, 40 cycles at 95 °C for 15 s, 60 °C for 1 min, with the ramp rate from 95 °C to 60 °C was set at 1 °C every second. The data were then analyzed through Qiagen web portal. Data for serum-free medium were selected as a control group and the differences in gene expression between control and treatment groups were calculated using the 2^(−delta delta CT) method. The difference, known as fold change, was obtained from the delta delta CT values, which are the genes of interest and the average housekeeping genes, followed by the delta delta CT (delta CT (treatment group)—delta CT (control group)).

[1] = IKBKB (IKK), PLC gamma signaling
[2] = PLCG1 (PLC), PLC gamma signaling
[3] = PPP2CA (TSC2), PLC gamma signaling
[4] = RASA1 (p120GAP), MAPK signaling
[5] = RPS6KA5 (p70S6K), MAPK signaling
[6] = RPS6KA5 (p70S6K), PI3K signaling
[7] = RPS6KA5 (p70S6K), PLC gamma signaling
[8] = RPS6KB1 (p70S6K), MAPK signaling
[9] = RPS6KB1 (p70S6K), PI3K signaling
[10] = RPS6KB1 (p70S6K), PLC gamma signaling

Q: What does the source list for “H-NINECFSSPCENQGICQDEIDGYNCVCQPGFTGTHCESSMLNHVI-OH (disulfide) [Sh-EGFl-1, 45 amino acid EGF-like peptide from Stichopus horrens contig 498513, synthesized by Fmoc solid-phase peptide chemistry]”?
A: gene expression of individual genes, in words: relatively high expression of MAPK8, MAPK9, MAP2K7, MKK, MAPK1, ELK1 and c-JUN; also recorded: high expression of Src, Ras, Kras and Raf; also recorded: IL-2 is minimally expressed; also recorded: increased expression of the adaptor proteins Shc, Sos and Grb2; signaling pathways activated (qPCR array): phosphoinositide 3-kinase (PI3K), mitogen-activated protein kinase (MAPK), phospholipase C gamma (PLC-gamma), Janus kinase-signal transducer and activator of transcription (JAK-STAT) and Ras homologous (Rho) pathways; also recorded: PI3K–AKT–GSK3, Ras–Raf–MEK–ERK–MAPK, PLC gamma, STAT and Rho signaling pathways; gene expression profile, EGF/PDGF pathway (qPCR array heat map): upregulation of most genes involved in EGF/PDGF pathways; expression class (AKT1, PI3K signaling): +; fold change (AKT1, PI3K signaling): (0.95); expression class (AKT3, PI3K signaling): +; fold change (AKT3, PI3K signaling): (1.11); expression class (ATF1, MAPK signaling): +; expression class (ATF2, MAPK signaling): +; fold change (ATF2, MAPK signaling): (0.89); expression class (CASP3, MAPK signaling): +; fold change (CASP3, MAPK signaling): (1.05); expression class (CASP9, MAPK signaling): +; fold change (CASP9, MAPK signaling): (0.93); expression class (CBL, MAPK signaling): −; fold change (CBL, MAPK signaling): (1.00); expression class (CCND1, PI3K signaling): −; fold change (CCND1, PI3K signaling): (1.17); expression class (DUSP1, MAPK signaling): +; fold change (DUSP1, MAPK signaling): (0.97); expression class (DUSP6, MAPK signaling): +; fold change (DUSP6, MAPK signaling): (1.05); expression class (E1F4E, PI3K signaling): +; fold change (E1F4E, PI3K signaling): (1.28); expression class (ELK1, JAK-STAT signaling): +; fold change (ELK1, JAK-STAT signaling): (1.08); expression class (FOS, JAK-STAT signaling): +; fold change (FOS, JAK-STAT signaling): (1.50); expression class (GAB1, PI3K signaling): +; fold change (GAB1, PI3K signaling): (1.00); expression class (GRB2, PI3K signaling): +; fold change (GRB2, PI3K signaling): (1.07); expression class (GSK3A, PI3K signaling): unc.; fold change (GSK3A, PI3K signaling): (0.87); expression class (GSK3B, PI3K signaling): +; fold change (GSK3B, PI3K signaling): (1.06); expression class (HRAS, MAPK signaling): +; fold change (HRAS, MAPK signaling): (0.93); expression class (IKBKB (IKK), PI3K signaling): +; fold change (IKBKB (IKK), PI3K signaling): (1.06); expression class [1]: +; fold change [1]: (1.06); expression class (IKBKB, MAPK signaling): +; expression class (JAK1, JAK-STAT signaling): +; fold change (JAK1, JAK-STAT signaling): (1.02); expression class (JUN, JAK-STAT signaling): +; fold change (JUN, JAK-STAT signaling): (1.32); expression class (MAP2K1 (MEK1), MAPK signaling): unc.; fold change (MAP2K1 (MEK1), MAPK signaling): (0.91); expression class (MAP2K4 (MKK4), MAPK signaling): unc.; fold change (MAP2K4 (MKK4), MAPK signaling): (0.84); expression class (MAP2K7 (MKK7), MAPK signaling): +; fold change (MAP2K7 (MKK7), MAPK signaling): (1.0); expression class (MAP3K2 (MEKK2), MAPK signaling): +; fold change (MAP3K2 (MEKK2), MAPK signaling): (1.27); expression class (MAPK1 (ERK2), MAPK signaling): +; fold change (MAPK1 (ERK2), MAPK signaling): (1.03); expression class (MAPK3 (ERK1), MAPK signaling): +; fold change (MAPK3 (ERK1), MAPK signaling): (0.98); expression class (MAPK8, MAPK signaling): +; fold change (MAPK8, MAPK signaling): (0.99); expression class (MAPK9, MAPK signaling): unc.; fold change (MAPK9, MAPK signaling): (0.80); expression class (MAPK10, MAPK signaling): −; fold change (MAPK10, MAPK signaling): (0.55); expression class (MKNK1, MAPK signaling): −; fold change (MKNK1, MAPK signaling): (0.82); expression class (NFATC3, MAPK signaling): +; fold change (NFATC3, MAPK signaling): (1.22); expression class (NFKB, PI3K signaling): +; fold change (NFKB, PI3K signaling): (1.02); expression class (NFKB, PLC gamma signaling): +; fold change (NFKB, PLC gamma signaling): (1.02); expression class (P13KCA, PI3K signaling): +; fold change (P13KCA, PI3K signaling): (1.47); expression class (PDPK1 (PDK1), PI3K signaling): unc.; fold change (PDPK1 (PDK1), PI3K signaling): (0.95); expression class (PIK3R1, PI3K signaling): +; fold change (PIK3R1, PI3K signaling): (0.98); expression class (PIK3R2, PI3K signaling): +; fold change (PIK3R2, PI3K signaling): (1.17); expression class [2]: +; fold change [2]: (1.18); expression class [3]: +; fold change [3]: (0.94); expression class (PRKCA, PLC gamma signaling): +; fold change (PRKCA, PLC gamma signaling): (1.10); expression class (RAP1A, MAPK signaling): +; fold change (RAP1A, MAPK signaling): (1.14); expression class [4]: +; fold change [4]: (1.07); expression class (RHOA, Rho signaling): +; fold change (RHOA, Rho signaling): (1.08); expression class [5]: +; fold change [5]: (0.97); expression class [6]: +; fold change [6]: (0.97); expression class [7]: +; fold change [7]: (0.97); expression class [8]: +; fold change [8]: (1.00); expression class [9]: +; fold change [9]: (1.00); expression class [10]: +; fold change [10]: (1.00); expression class (SHC1, MAPK signaling): +; fold change (SHC1, MAPK signaling): (0.94); expression class (SHC1, PI3K signaling): +; fold change (SHC1, PI3K signaling): (0.94); expression class (SRC, JAK-STAT signaling): +; fold change (SRC, JAK-STAT signaling): (1.18); expression class (STAT3, JAK-STAT signaling): +; fold change (STAT3, JAK-STAT signaling): (1.06); expression class (STAT5, JAK-STAT signaling): +; fold change (STAT5, JAK-STAT signaling): (1.06); expression class (TP53, MAPK signaling): +; fold change (TP53, MAPK signaling): (0.96); expression class (TP53, PI3K signaling): +; fold change (TP53, PI3K signaling): (0.96)
